Measurements reported in US5202348A, “Thiarubrine antifungal agents” (The University of British Columbia, priority 1990, dated 1993).
Values after ≈ are worked out from the molar mass of the structure shown. Like-named read-outs stand apart in the source and are kept apart here.

Tests used:
[1] = test system: P. aeruginosa; assay: Growth inhibition of P. aeruginosa during 24 hours exposure; format: cell-based, Pseudomonas aeruginosa; conditions: Pseudomonas aeruginosa, Table 3, read-out: Minimal concentration causing 100% growth inhibition
[2] = test system: Candida albicans, Aspergillus fumigatus and Cryptococcus neoformans; assay: Antifungal activity (general statement); format: cell-based; conditions: extremely low concentrations
[3] = test system: C. albicans; assay: Growth inhibition of C. albicans during 24 hours exposure; format: cell-based, Candida albicans; conditions: Candida albicans; 24 hours exposure; Table 3; read-out: Minimal concentration causing 100% growth inhibition
[4] = test system: P. aeruginosa; assay: Growth inhibition of P. aeruginosa during 24 hours exposure; format: cell-based, Pseudomonas aeruginosa; conditions: Pseudomonas aeruginosa; 24 hours exposure; Table 4; read-out: Minimal concentration causing 50% growth inhibition
Procedure: (§1) Doses inhibiting growth in 50% were estimated by plotting concentration o
(§2) a logarithmic scale and percent of growth inhibition for 24 hours exposur
(§3) on a probability scale.

[5] = Growth inhibition of WEHI-3 during 24 hours exposure; format: cell-based, Mouse; conditions: mouse, wehi-3 cells; Table 2; read-out: Toxicity Index, LC50 WEHI-3 / LC50 C. albicans
Procedure: (§4) WEHl3 = Mouse myelomonocyte
as §1, §2, §3

[6] = test system: WEHI-3; assay: as above; format: cell-based, Mouse; conditions: Mus musculus, WEHI-3; 24 hours exposure; Table 1; read-out: Concentration causing 50% growth inhibition
Procedure: as §4, §1, §2, §3

[7] = test system: C. albicans; assay: Decomposition of ThD in 95% ethanol in -20° C. (LC50 on C. albicans); format: cell-based; conditions: Candida albicans
From the text: (§5) Data on degradation of Thiarubrine D (ThD) expressed as changes of concentration required to inhibit growth of C. albicans in 50% during 24 hrs. exposure (Lc50 24 hrs.).

[8] = Growth inhibition of P815 mastocytoma during 24 hours exposure; format: cell-based, Mouse; conditions: mouse, p815 cells
Procedure: (§6) P815 = Mouse mastocytoma […]
as §2, §3

[9] = test system: P815; assay: as above; format: cell-based, Mouse; conditions: Mus musculus, P815, 24 hours exposure
Procedure: as §6, §2, §3

[10] = test system: Aspergillus fumigatus; assay: Sensitivity of Aspergillus fumigatus, agar diffusion method; format: cell-based; conditions: disc diameter 6 mm, read-out: Zone of Growth Inhibition
From the text: Results were obtained by agar diffusion method. Disc diameter - 6 mm. -* = no zone over disc diameter.

[11] = test system: E. coli; assay: Growth inhibition of E. coli during 24 hours exposure; format: cell-based, Escherichia coli; conditions: Escherichia coli; 24 hours exposure; Table 3; read-out: Minimal concentration causing 100% growth inhibition
[12] = test system: L1210; assay: Growth inhibition of L1210 during 24 hours exposure; format: cell-based, Mouse; conditions: Mus musculus, L1210; 24 hours exposure; Table 1; read-out: Concentration causing 50% growth inhibition
Procedure: (§7) L1210 = Mouse lymphocytic leukemia
as §1, §2, §3

[13] = as above; format: cell-based, Mouse; conditions: mouse, l1210 cells; Table 2; read-out: Toxicity Index, LC50 L1210 / C. albicans
Procedure: as §7, §1, §2, §3

[14] = test system: P815 mastocytoma; assay: LC50 (24 hrs.), doses required to inhibit growth in 50%, different method; format: cell-based; conditions: Mus musculus, P815, 24 h, read-out: LC50 (24 hrs.), dose required to inhibit growth in 50%
[15] = test system: C. albicans; assay: Doses of ThD required to inhibit different numbers of C. albicans cells; format: cell-based; conditions: Candida albicans, read-out: LC50 (the source's name)
[16] = test system: C. albicans; assay: Influence of exposure of ThD for two hrs. to different pH (LC50 on C. albicans); format: cell-based; conditions: Candida albicans, two hrs. in sodium phosphate buffer
From the text: as §5

[17] = test system: C. albicans; assay: Changes in LC50 on addition of fetal bovine serum to Saboraud dextrose medium; format: cell-based; conditions: Candida albicans
From the text: as §5

## CC#CC1=CC=C(C#CC#CC2CO2)SS1 (centres unmarked) [Thiarubrine D]
[1]
  MIC: 0.625 µg/mL (≈ 2.56 µM)
[2]
  Antifungal activity: very high antifungal activity
[3]
  MIC: 0.0024 µg/mL (≈ 0.00982 µM)
[4]
  IC50: 0.21 µg/mL (≈ 0.859 µM)
[5]
  selectivity ratio at 24 h: 83
[6]
  IC50: 0.05 µg/mL (≈ 0.205 µM)
[7]; 0 h, 0 days
  IC50: 0.007 µg/mL (≈ 0.0286 µM)
[7]; 504 h, 21 days
  IC50: 0.017 µg/mL (≈ 0.0696 µM)
[8]; 50% growth inhibition, Table 4, read-out: Ratio of concentration needed to inhibit growth in 50%, P815 vs C. albicans
  selectivity ratio at 24 h: 200
[8]; 100% growth inhibition, Table 3, read-out: Ratio of minimal concentration causing 100% growth inhibition, P815 line vs C. albicans
  selectivity ratio at 24 h: ~500
[8]; Table 2, read-out: Toxicity Index, LC50 P815 / LC50 C. albicans
  selectivity ratio at 24 h: 200
[9]; Table 1, read-out: Concentration causing 50% growth inhibition
  IC50: 0.12 µg/mL (≈ 0.491 µM)
[9]; Table 3, read-out: Minimal concentration causing 100% growth inhibition
  IC100: 1.25 µg/mL
[9]; Table 4, read-out: Minimal concentration causing 50% growth inhibition
  IC50: 0.12 µg/mL (≈ 0.491 µM)
[10]; 10 ng/disc
  zone of inhibition at 0.01 µg/disc: 14 mm
[10]; 100 ng/disc
  zone of inhibition at 0.1 µg/disc: 23 mm
[10]; 1,000 ng/disc
  zone of inhibition at 1 µg/disc: 26 mm
[10]; 10,000 ng/disc
  zone of inhibition at 10 µg/disc: 32 mm
[11]
  MIC: 0.078 µg/mL (≈ 0.319 µM)
[12]
  IC50: 0.047 µg/mL (≈ 0.192 µM)
[13]
  selectivity ratio at 24 h: 78
[14]
  IC50: 0.085 µg/mL (≈ 0.348 µM)
[15]; cell density 10^4 /ml
  IC50: 0.007 µg/mL (≈ 0.0286 µM)
[15]; cell density 10^5 /ml
  IC50: 0.016 µg/mL (≈ 0.0655 µM)
[15]; cell density 10^6 /ml
  IC50: 0.042 µg/mL (≈ 0.172 µM)
[16]; pH 5
  IC50: 0.04 µg/mL (≈ 0.164 µM)
[16]; pH 6
  IC50: 0.034 µg/mL (≈ 0.139 µM)
[16]; pH 7
  IC50: 0.02 µg/mL (≈ 0.0819 µM)
[16]; pH 8
  IC50: 0.052 µg/mL (≈ 0.213 µM)
[17]; SAB
  IC50: 0.007 µg/mL (≈ 0.0286 µM)
[17]; SAB + 5% FBS
  IC50: 0.014 µg/mL
[17]; SAB + 10% FBS
  IC50: 0.016 µg/mL
